Assay results as given in patent US9497963B2, “Methods and compositions for control of gypsy moth, Lymantria dispar” (Simon Fraser University, priority 2008, dated 2016).

system: male gypsy moth antenna; assay: Coupled gas chromatographic-electroantennographic detection (GC-EAD); design: species or system Lymantria dispar; conditions: EAD peak size and shape (sharp/broad)
Source text: In GC-EAD assays, the analyte is processed by gas chromatography (GC). The column effluent is split, such that molecules of each chromatographic peak arrive simultaneously at the flame ionization detector of the GC and at an anectomized but otherwise intact insect antenna as the biological detector. This procedure detects specific compounds in the analyte that elicit an electrical potential from the antenna.
For GC-EAD recordings, an antenna was carefully dislodged from a male moth's head, and the antennal base placed into the opening of a glass capillary electrode (0.58 mm ID×65 mm length) (A-M Systems, Inc., Carlsborg, Wash., USA) filled with saline solution. The tip of the antenna was removed by spring microscissors (Fine Science Tools Inc., North Vancouver, British Columbia, Canada) and then placed into the opening of the recording electrode mounted on a portable micromanipulator and positioned in front of a constant stream of warm air (Praxair Canada Inc., Mississauga, Ontario, Canada) which delivered the GC column eluent. […] Identical retention times of compounds detected by the flame ionization detector of the GC and by the insect antenna allowed assignment of antennal responses to specific compounds in the eluent.

Row | Compound | GC-EAD activity
1 | CCCOc1cccc(OCCC(C)C)c1 [3b{3,5}, 1-(3-methyl-butyloxy)-3-propoxy benzene] | None
2 | C=CCOc1ccc(OCCC(C)C)cc1 [3c{5,6}, 1-allyloxy-4-isopentoxybenzene] | None
3 | CCCCOc1ccccc1OCCC [3a{3,4}, 1-butoxy-2-propoxy benzene] | ++ sharp
4 | CCCCOc1ccccc1OCC [3a{2,4}, 1-ethoxy-2-butoxy benzene] | ++ sharp
5 | CCCOc1cccc(OC)c1 [3b{1,3}, 1-methoxy-3-propoxy benzene] | Trace
6 | COc1ccccc1OCCC(C)C [3a{1,5}, 1-methoxy-2-(3-methyl-butoxy) benzene] | + broad
7 | CCCCOc1cccc(OC)c1 [3b{1,4}, 1-butoxy-3-methoxy benzene] | None
8 | CCCOc1cccc(OCC)c1 [3b{2,3}, 1-ethoxy-3-propoxy benzene] | None
9 | C=CCOc1ccc(OCCCC)cc1 [3c{4,6}, 1-allyloxy-4-butoxy benzene] | None
10 | CCCOc1ccccc1OC [3a{1,3}, 1-methoxy-2-propoxy benzene] | + sharp
11 | CCCOc1ccccc1OCCC(C)C [3a{3,5}, 1-(3-methyl-butoxy)-2-propoxy benzene] | + broad
12 | CCOc1ccccc1OCCC(C)C [3a{2,5}, 1-ethoxy-2-(3-methyl-butoxy) benzene] | ++ sharp
13 | C=CCOc1ccccc1OCCC [3a{3,6}, 1-allyloxy-2-propoxybenzene] | ++ broad
14 | C=CCOc1ccccc1OCC [3a{2,6}, 1-allyloxy-2-ethoxy benzene] | + broad
15 | C=CCOc1ccccc1OCCCC [3a{4,6}, 1-allyloxy-2-butoxybenzene] | ++ broad
16 | CCCCOc1cccc(OCCC)c1 [3b{3,4}, 1-butoxy-3-propoxy benzene] | None
17 | C=CCOc1ccccc1OC [3a{1,6}, 1-allyloxy-2-methoxy benzene] | + sharp
18 | CCCCOc1cccc(OCC)c1 [3b{2,4}, 1-butoxy-3-ethoxy benzene] | None

same assay, conditions: male gypsy moth antenna; starting phenols 4, diethers 5 and dihydropyrans 6c from Claisen rearrangement chemistry

Row | Compound | GC-EAD activity
19 | C=CCc1cccc(OCC)c1OCCC [5a{3, 2}] | + broad
20 | C=CCc1cccc(OCCC)c1OCCC(C)C [5a{5, 3}] | None
21 | C=CCc1cccc(OCCC(C)C)c1O [4a{5}, 2-allyl-6-(3-methyl-butoxy) phenol] | Trace
22 | CC(C)CCOc1ccc2c(c1)CC(C)O2 (stereo not shown) [6c{5}, 5-(3-methyl-butoxy)-2-methyl-2,3-dihydro benzofuran] | None
23 | COc1ccc2c(c1)CC(C)O2 (stereo not shown) [6c{1}, 5-methoxy-2-methyl-2,3-dihydro benzofuran] | + sharp
24 | CCCOc1ccc2c(c1)CC(C)O2 (stereo not shown) [6c{3}, 5-propoxy-2-methyl-2,3-dihydro benzofuran] | Trace
25 | C=CCc1cc(OCCCC)ccc1O [4c{4}, 2-allyl-4-butoxy phenol] | None
26 | C=CCc1cc(OCCC(C)C)ccc1O [4c{5}, 2-allyl-4-(3-methyl-butoxy) phenol] | None
27 | C=CCc1cccc(OCC)c1O [4a{2}, 2-allyl-6-ethoxy phenol] | + sharp
28 | C=CCc1cccc(OC)c1OCC [5a{2, 1}] | Trace
29 | C=CCc1cccc(OCCCC)c1OCCC(C)C [5a{5, 4}] | None
30 | C=CCc1cc(OC)ccc1O [4c{1}, 2-allyl-4-methoxy phenol] | ++ sharp
31 | C=CCc1cccc(OC)c1OCCC [5a{3, 1}] | + broad
32 | C=CCc1cccc(OC)c1O [4a{1}, 2-allyl-6-methoxy phenol] | ++ sharp
33 | C=CCc1cc(OCC)ccc1O [4c{2}, 2-allyl-4-ethoxy phenol] | + sharp
34 | CCCCOc1ccc2c(c1)CC(C)O2 (stereo not shown) [6c{4}, 5-butoxy-2-methyl-2,3-dihydro benzofuran] | None
